# “And” between values parts separate entries of the source, which are not always exact repeats. Equal entries are not always repeated.
# Assays:
# Experiment in all cases: ≥ marks a high value that may be exact or a test limit, other limits are often not marked, values filed in µg/mL are converted to µM
# Bacillus megaterium Bm11 = tested on: Bacillus megaterium Bm11
# Candida albicans = tested on: Candida albicans
# Cryptococcus neoformans = tested on: Cryptococcus neoformans
# Enterococcus faecium = tested on: Enterococcus faecium
# [1] = tested on: Escherichia coli ATCC 25922
# Escherichia coli ML-35 = tested on: Escherichia coli ML-35
# [2] = tested on: Escherichia coli O18:K1:H7 Bort
# [3] = tested on: Salmonella enterica subsp. enterica serovar Typhimurium ATCC 14028
# [4] = tested on: Serratia marcescens ATCC 8100
# Serratia marcescens = tested on: Serratia marcescens
# [5] = tested on: Staphylococcus aureus ATCC 25923
# Staphylococcus aureus = tested on: Staphylococcus aureus
# [6] = tested on: Staphylococcus epidermidis ATCC 12228
# Streptococcus agalactiae = tested on: Streptococcus agalactiae
# Aureobasidium pullulans = tested on: Aureobasidium pullulans
# Bacillus megaterium = tested on: Bacillus megaterium
# [7] = tested on: Bacillus subtilis ATCC 23857
# [8] = tested on: Candida albicans ATCC 10231
# [9] = tested on: Corynebacterium glutamicum ATCC 13032
# Micrococcus luteus = tested on: Micrococcus luteus
# [10] = tested on: Pseudomonas aeruginosa ATCC 27853
# [11] = tested on: Staphylococcus aureus ATCC 9144
# Bacillus subtilis C971 = tested on: Bacillus subtilis C971
# [12] = tested on: Corynebacterium xerosis C875
# [13] = tested on: Enterococcus faecalis C625
# Escherichia coli DC2 = tested on: Escherichia coli DC2
# Escherichia coli UB1005 = tested on: Escherichia coli UB1005
# [14] = tested on: Pseudomonas aeruginosa H187
# [15] = tested on: Pseudomonas aeruginosa H188
# [16] = tested on: Salmonella typhimurium C587
# [17] = tested on: Salmonella typhimurium C610
# [18] = tested on: Staphylococcus aureus SAP 0017
# [19] = tested on: Staphylococcus epidermidis C621
# Aspergillus fumigatus = tested on: Aspergillus fumigatus
# Bibersteinia trehalosi = tested on: Bibersteinia trehalosi
# [20] = tested on: Corynebacterium pseudotuberculosis ATCC 19410
# Klebsiella pneumoniae = tested on: Klebsiella pneumoniae
# [21] = tested on: Mannheimia haemolytica Serovar 1
# [22] = tested on: Mannheimia haemolytica Serovar 2
# [23] = tested on: Mannheimia haemolytica Serovar 6
# Pasteurella multocida = tested on: Pasteurella multocida
# [24] = tested on: Pseudomonas aeruginosa PAO1
# [25] = tested on: Salmonella enterica subsp. arizonae
# [26] = tested on: Bacillus subtilis MTCC 2763
# [27] = tested on: Escherichia coli MTCC 723
# [28] = tested on: Pseudomonas aeruginosa MTCC 2295
# [29] = tested on: Staphylococcus aureus ATCC BAA-1720
# [30] = tested on: Staphylococcus aureus MTCC 3160
# [31] = tested on: Staphylococcus epidermidis ATCC 51625
compound,measurement,setting,value
CC[C@H](C)[C@H](NC(=O)[C@H](CCCCN)NC(=O)[C@H](CCCN=C(N)N)NC(=O)CNC(=O)[C@H](CC(C)C)NC(=O)[C@H](CO)NC(=O)[C@H](CCCN=C(N)N)NC(=O)[C@H](CC(C)C)NC(=O)CNC(=O)CN)C(=O)N[C@@H](CC(C)C)C(=O)N[C@@H](CCCN=C(N)N)C(=O)N[C@@H](C)C(=O)N[C@@H](Cc1c[nH]c2ccccc12)C(=O)N[C@@H](CCCCN)C(=O)N[C@@H](CCCCN)C(=O)N[C@@H](Cc1ccc(O)cc1)C(=O)NCC(=O)N1CCC[C@H]1C(=O)N[C@@H](CCC(N)=O)C(=O)N[C@@H](C)C(=O)N[C@H](C(=O)N1CCC[C@H]1C(=O)N[C@@H](C)C(=O)N[C@H](C(=O)N[C@@H](CCCN=C(N)N)C(=O)N[C@@H](CCC(N)=O)C(N)=O)[C@@H](C)O)[C@@H](C)O [GGLRSLGRKILRAWKKYGPQATPATRQ],MIC,Bacillus megaterium Bm11,2 µM
same,MIC,Candida albicans,8 µM
same,MIC,Cryptococcus neoformans,4 µM
same,MIC,Enterococcus faecium,22.6 µM
same,MIC,[1],1 µM
same,MIC,Escherichia coli ML-35,0.5 µM
same,MIC,[2],2 µM
same,MIC,[3],1 µM
same,MIC,[4],4 µM
same,MIC,Serratia marcescens,4 µM
same,MIC,[5],8 µM
same,MIC,Staphylococcus aureus,> 64 µM and 32 µM
same,MIC,[6],2 µM
same,MIC,Streptococcus agalactiae,1.41 µM
C[C@H](NC(=O)[C@H](CCCN=C(N)N)NC(=O)[C@H](Cc1c[nH]c2ccccc12)NC(=O)[C@H](Cc1c[nH]c2ccccc12)NC(=O)[C@H](Cc1c[nH]c2ccccc12)NC(=O)[C@@H]1CCCN1C(=O)[C@H](CCCN=C(N)N)NC(=O)[C@H](CCCN=C(N)N)NC(=O)CN)C(=O)N[C@@H](CCCN=C(N)N)C(N)=O [GRRPWWWRAR],MIC,Aureobasidium pullulans,21.9 µM
same,MIC,Bacillus megaterium,0.701 µM
same,MIC,[7],2.73 µM
same,MIC,[8],21.9 µM
same,MIC,[9],1.4 µM
same,MIC,[1],5.47 µM
same,MIC,Micrococcus luteus,2.73 µM
same,MIC,[10],21.9 µM
same,MIC,[11],5.47 µM
CC[C@H](C)[C@H](NC(=O)[C@H](C)NC(=O)[C@H](CCCCN)NC(=O)[C@H](CC(C)C)NC(=O)[C@H](C)NC(=O)[C@@H](NC(=O)[C@H](Cc1cnc[nH]1)NC(=O)[C@H](CC(C)C)NC(=O)[C@@H](NC(=O)[C@@H](NC(=O)[C@H](CCCCN)NC(=O)[C@@H](NC(=O)[C@H](C)NC(=O)CNC(=O)[C@H](CCCCN)NC(=O)[C@H](Cc1ccccc1)NC(=O)[C@@H](NC(=O)[C@H](CCCCN)NC(=O)[C@H](CC(C)C)NC(=O)[C@H](Cc1ccccc1)NC(=O)[C@H](CO)NC(=O)[C@H](CCCCN)NC(=O)[C@H](Cc1c[nH]c2ccccc12)NC(=O)[C@H](CCCCN)NC(C)=O)[C@@H](C)O)C(C)C)[C@@H](C)O)C(C)C)[C@@H](C)O)C(=O)N[C@@H](CO)C(=O)N[C@@H](CO)C(N)=O [KWKSFLKTFKGAVKTVLHTALKAISS],MIC,Bacillus subtilis C971,0.692 µM
same,MIC,[12],0.692 µM
same,MIC,[13],4.39 µM
same,MIC,Escherichia coli DC2,0.865 µM
same,MIC,Escherichia coli UB1005,1.73 µM
same,MIC,[14],1.38 µM
same,MIC,[15],3.49 µM
same,MIC,[16],4.39 µM
same,MIC,[17],1.11 µM
same,MIC,[5],2.77 µM
same,MIC,[18],1.73 µM
same,MIC,[19],1.38 µM
CC[C@H](C)[C@H](NC(=O)[C@H](Cc1cnc[nH]1)NC(=O)[C@@H](NC(=O)[C@@H](NC(=O)[C@H](CCCCN)NC(=O)[C@H](CCCN=C(N)N)NC(=O)[C@@H](NC(=O)[C@@H](NC(=O)[C@H](CCCN=C(N)N)NC(=O)[C@H](CCCN=C(N)N)NC(=O)[C@@H](N)CC(C)C)[C@@H](C)CC)[C@@H](C)CC)[C@@H](C)CC)[C@@H](C)CC)C(=O)N[C@H](C(=O)N[C@@H](CCCCN)C(N)=O)[C@@H](C)CC [LRRIIRKIIHIIK],MIC,Aspergillus fumigatus,4.96 µM
same,MIC,Bibersteinia trehalosi,2.99 µM
same,MIC,[20],12 µM
same,MIC,Klebsiella pneumoniae,4.01 µM
same,MIC,[21],1.97 µM
same,MIC,[22],1.02 µM
same,MIC,[23],2.51 µM
same,MIC,Pasteurella multocida,2.99 µM
same,MIC,[24],1.02 µM
same,MIC,[25],12 µM
same,MIC,Staphylococcus aureus,5.98 µM
NC(=O)[C@H](CCCN=C(N)N)NC(=O)[C@H](Cc1c[nH]c2ccccc12)NC(=O)[C@H](Cc1c[nH]c2ccccc12)NC(=O)[C@H](CCCN=C(N)N)NC(=O)[C@@H](N)Cc1c[nH]c2ccccc12 [WRWWR],MIC,[26],≥ 56.2 µM
same,MIC,[27],≥ 45 µM
same,MIC,[28],≥ 78.7 µM
same,MIC,[29],19.7 µM
same,MIC,[30],16.9 µM
same,MIC,[31],22.5 µM
